# ChEMBL document CHEMBL1153328, “5-Aminomethylbenzimidazoles as potent ITK antagonists” (Bioorg Med Chem Lett, 2009)
# Key:
# T-cell = experiment: Inhibition of anti-CD3 and anti-CD28 monoclonal antibody-stimulated IL2 secretion in human CD4+ T cells; assay type: functional, cell-based
# [1] = target: T1, Tyrosine-protein kinase ITK/TSK (Homo sapiens, UniProt Q08881); experiment: Inhibition of ITK in presence of 1 mM ATP
# T1 sequence (Q08881 whole entry): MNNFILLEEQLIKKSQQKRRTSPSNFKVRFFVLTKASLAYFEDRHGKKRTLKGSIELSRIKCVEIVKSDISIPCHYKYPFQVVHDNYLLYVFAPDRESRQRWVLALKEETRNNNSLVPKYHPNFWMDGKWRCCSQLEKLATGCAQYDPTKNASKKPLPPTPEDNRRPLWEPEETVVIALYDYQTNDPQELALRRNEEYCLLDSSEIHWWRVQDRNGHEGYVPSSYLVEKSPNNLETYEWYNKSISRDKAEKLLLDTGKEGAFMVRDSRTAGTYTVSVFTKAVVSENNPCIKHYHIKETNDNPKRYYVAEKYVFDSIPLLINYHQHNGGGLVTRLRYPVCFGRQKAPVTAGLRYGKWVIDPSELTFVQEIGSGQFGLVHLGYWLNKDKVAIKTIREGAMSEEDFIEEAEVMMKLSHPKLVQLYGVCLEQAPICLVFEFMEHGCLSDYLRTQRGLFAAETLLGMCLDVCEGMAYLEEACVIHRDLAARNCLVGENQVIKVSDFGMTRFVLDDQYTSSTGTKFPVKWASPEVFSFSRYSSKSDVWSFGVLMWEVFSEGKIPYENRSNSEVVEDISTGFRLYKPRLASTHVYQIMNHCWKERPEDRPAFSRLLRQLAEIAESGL
# [2] = target: T1, Tyrosine-protein kinase ITK/TSK; experiment: Antagonist activity at human ITK expressed in BTK deficient DT40 cells assessed as inhibition of B cell receptor-stimulated calcium influx; assay type: functional, cell-based
# [3] = target: T1, Tyrosine-protein kinase ITK/TSK; experiment: Binding affinity to ITK by DELFIA-based molecular assay
# Insulin receptor = Insulin receptor (Homo sapiens, UniProt P06213); experiment: Inhibition of IRK
# Sequence of Insulin receptor (P06213 28-758 limits assumed): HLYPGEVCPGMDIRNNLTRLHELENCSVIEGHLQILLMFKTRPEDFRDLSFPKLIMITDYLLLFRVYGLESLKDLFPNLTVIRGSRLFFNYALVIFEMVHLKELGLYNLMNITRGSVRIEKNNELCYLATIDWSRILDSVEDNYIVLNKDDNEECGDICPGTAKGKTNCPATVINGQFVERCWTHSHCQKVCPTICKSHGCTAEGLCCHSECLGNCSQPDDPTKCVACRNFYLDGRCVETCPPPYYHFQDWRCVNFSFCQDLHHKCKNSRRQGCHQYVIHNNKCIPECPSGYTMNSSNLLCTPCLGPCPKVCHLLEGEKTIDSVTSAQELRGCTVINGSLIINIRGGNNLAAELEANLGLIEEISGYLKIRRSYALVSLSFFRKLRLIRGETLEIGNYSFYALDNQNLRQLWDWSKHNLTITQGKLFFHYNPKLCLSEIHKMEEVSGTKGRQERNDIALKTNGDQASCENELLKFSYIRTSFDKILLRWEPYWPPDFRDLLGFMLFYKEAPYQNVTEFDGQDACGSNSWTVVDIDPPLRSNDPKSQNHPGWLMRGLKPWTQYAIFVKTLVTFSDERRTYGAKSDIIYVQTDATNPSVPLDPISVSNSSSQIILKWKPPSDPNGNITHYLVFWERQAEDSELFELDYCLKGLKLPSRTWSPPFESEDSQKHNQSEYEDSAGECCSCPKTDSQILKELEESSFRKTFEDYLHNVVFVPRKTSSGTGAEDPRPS
# Sequence of Insulin receptor (P06213 763-1382 limits assumed): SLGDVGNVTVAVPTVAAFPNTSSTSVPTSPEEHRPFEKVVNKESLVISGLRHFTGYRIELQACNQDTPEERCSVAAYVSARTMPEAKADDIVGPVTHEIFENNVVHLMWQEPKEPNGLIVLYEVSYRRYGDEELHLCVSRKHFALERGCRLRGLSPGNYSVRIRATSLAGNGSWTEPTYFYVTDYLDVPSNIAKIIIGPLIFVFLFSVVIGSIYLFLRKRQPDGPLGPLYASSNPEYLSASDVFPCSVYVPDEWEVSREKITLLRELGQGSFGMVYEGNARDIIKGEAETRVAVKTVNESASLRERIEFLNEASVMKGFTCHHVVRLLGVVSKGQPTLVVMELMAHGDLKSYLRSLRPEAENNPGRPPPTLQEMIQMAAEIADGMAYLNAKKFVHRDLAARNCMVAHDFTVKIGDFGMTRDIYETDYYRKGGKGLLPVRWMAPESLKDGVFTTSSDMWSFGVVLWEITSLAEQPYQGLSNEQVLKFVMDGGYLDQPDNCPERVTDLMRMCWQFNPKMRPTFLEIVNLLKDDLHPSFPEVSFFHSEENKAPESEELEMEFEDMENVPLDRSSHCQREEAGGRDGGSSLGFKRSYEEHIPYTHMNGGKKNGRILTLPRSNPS
# Blood = experiment: Inhibition of staphylococcal entertoxin B-stimulated IL2 secretion in human whole blood; assay type: functional, tissue-based
# [4] = Protein binding in plasma by dialysis method; assay type: ADME, cell-free; conditions: read-out: PPB (converted)
# [5] = Solubility at pH 7; assay type: physicochemical; conditions: buffer
# [6] = Cmax in Sprague-Dawley rat at 10 mg/kg, po; assay type: ADME, organism-based; set-up: dose 10 mg/kg, route oral; conditions: in vivo
# [7] = AUC (0 to infinity) in Sprague-Dawley rat at 1 mg/kg, iv; assay type: ADME, organism-based; set-up: time infinity, dose 1 mg/kg, route intravenous; conditions: plasma
# Mus musculus [8] = experiment: Inhibition of anti-CD3-stimulated IL4 production in po dosed BALB/c mouse administered 5 hrs before anti-CD3 challenge measured after 3 hrs; assay type: functional, organism-based
# [9] = Oral bioavailability in Sprague-Dawley rat at 10 mg/kg; assay type: ADME, organism-based; conditions: in vivo
# [10] = Terminal half life in Sprague-Dawley rat at 1 mg/kg, iv; assay type: ADME, organism-based; set-up: dose 1 mg/kg, route intravenous; conditions: in vivo, read-out: beta t1/2 (converted)
# [11] = Terminal plasma concentration in BALB/c mouse at 5 mg/kg, po after 8 hrs; assay type: ADME, organism-based; set-up: dose 5 mg/kg, route oral; conditions: read-out: Cp(T)
# [12] = Plasma clearance in Sprague-Dawley rat at 1 mg/kg, iv; assay type: ADME, organism-based; set-up: dose 1 mg/kg, route intravenous
# [13] = Terminal plasma concentration in BALB/c mouse at 1.5 mg/kg, po after 8 hrs; assay type: ADME, organism-based; set-up: dose 1.5 mg/kg, route oral; conditions: read-out: Cp(T)
# [14] = Terminal plasma concentration in BALB/c mouse at 15 mg/kg, po after 8 hrs; assay type: ADME, organism-based; set-up: dose 15 mg/kg, route oral; conditions: read-out: Cp(T)
# [15] = Volume of distribution at steady state in Sprague-Dawley rat at 1 mg/kg, iv; assay type: ADME, organism-based; set-up: dose 1 mg/kg, route intravenous; conditions: in vivo, read-out: Vdss
# [16] = Tmax in Sprague-Dawley rat at 10 mg/kg, po; assay type: ADME, organism-based; set-up: dose 10 mg/kg, route oral; conditions: in vivo
# Mus musculus [17] = experiment: Inhibition of anti-CD3-stimulated IL2 production in po dosed BALB/c mouse administered 5 hrs before anti-CD3 challenge measured after 3 hrs; assay type: functional, organism-based
# [18] = AUC (0 to infinity) in Sprague-Dawley rat at 10 mg/kg, po; assay type: ADME, organism-based; set-up: time infinity, dose 10 mg/kg, route oral; conditions: plasma
SMILES,IC50 (T-cell) [nM],IC50 [1] [nM],IC50 [2] [nM],IC50 [3] [nM],IC50 (Insulin receptor) [nM],other results
CC(C)(O)Cn1/c(=N/C(=O)c2ccc(-c3cn[nH]c3)s2)[nH]c2cc(CN3CCCCC3)ccc21,120,250,11,3,550,
C[C@@H](NCc1ccc2c(c1)nc(NC(=O)c1ccc(-c3cn[nH]c3)s1)n2CC(C)(C)O)C(C)(C)C,50,20,3,1,93,
Cc1ncc(-c2ccc(C(=O)Nc3nc4cc(CNC5CCCCC5)ccc4n3CC(C)(C)O)s2)o1,180,940,210,8,700,
Cc1ncc(-c2ccc(C(=O)Nc3nc4cc(N(C)C(=O)c5ccccc5)ccc4n3CC(C)(C)O)s2)o1,440,200,110,3,940,IC50 (Blood): 10000 nM; fraction unbound [4]: 0.013; solubility [5]: 2 µg/mL
C[C@H](N(C)Cc1ccc2c(c1)[nH]/c(=N\C(=O)c1ccc(-c3cn[nH]c3)s1)n2CC(C)(C)O)C(C)(C)C,18,8,3,1,400,IC50 (Blood): 690 nM
CC(C)(O)Cn1c(NC(=O)c2ccc(-c3cn[nH]c3)s2)nc2cc(CNc3ccccc3)ccc21,150,75,21,2,1700,
C[C@@H](N(C)Cc1ccc2c(c1)nc(NC(=O)c1ccc(-c3cn[nH]c3)s1)n2CC(C)(C)O)C(C)(C)C,64,20,2,1,230,
CC(C)(O)Cn1/c(=N/C(=O)c2ccc(-c3cn[nH]c3)s2)[nH]c2cc(CN3CCC(O)C3)ccc21 (centres undefined),,310,130,2,420,
CC1COCC(C)N1Cc1ccc2c(c1)[nH]/c(=N\C(=O)c1ccc(-c3cn[nH]c3)s1)n2CC(C)(C)O (centres undefined),46,98,3,1,320,
CN(Cc1ccc2c(c1)[nH]/c(=N\C(=O)c1ccc(-c3cn[nH]c3)s1)n2CC(C)(C)O)c1ccccc1,,,,,5500,
CC(C)(O)Cn1c(NC(=O)c2ccc(-c3cn[nH]c3)s2)nc2cc(CNC3CCCCC3)ccc21,93,99,20,1,400,
CN(Cc1ccc2c(c1)nc(NC(=O)c1ccc(-c3cn[nH]c3)s1)n2CC(C)(C)O)C1CCCCC1,59,160,13,2,480,
CNCc1ccc2c(c1)[nH]/c(=N\C(=O)c1ccc(-c3cn[nH]c3)s1)n2CC(C)(C)O,,,,,500,
CC(C)(O)Cn1/c(=N/C(=O)c2ccc(-c3cn[nH]c3)s2)[nH]c2cc(CN3CCCCC3CO)ccc21 (centres undefined),,660,58,3,1100,
CN(Cc1cccnc1)Cc1ccc2c(c1)[nH]/c(=N\C(=O)c1ccc(-c3cn[nH]c3)s1)n2CC(C)(C)O,91,,,,310,
CN(C)Cc1ccc2c(c1)[nH]/c(=N\C(=O)c1ccc(-c3cn[nH]c3)s1)n2CC(C)(C)O,130,,,,,
CN(C)CCN(C)Cc1ccc2c(c1)[nH]/c(=N\C(=O)c1ccc(-c3cn[nH]c3)s1)n2CC(C)(C)O,150,,,,390,
Cc1ncc(-c2ccc(C(=O)/N=c3\[nH]c4cc(CN(C)C5CCCCC5)ccc4n3CC(C)(C)O)s2)o1,230,,,,350,
Cc1ncc(-c2ccc(C(=O)/N=c3\[nH]c4cc(CNc5ccccc5)ccc4n3CC(C)(C)O)s2)o1,460,,,,,
CC(C)(O)Cn1/c(=N/C(=O)c2ccc(-c3cn[nH]c3)s2)[nH]c2cc(CNCc3ccccc3)ccc21,37,,,,480,
CC(C)(O)Cn1c(NC(=O)c2ccc(-c3cn[nH]c3)s2)nc2cc(CN)ccc21,,900,> 5000,4,1200,
CCC(C)NCc1ccc2c(c1)nc(NC(=O)c1ccc(-c3cn[nH]c3)s1)n2CC(C)(C)O (centres undefined),23,390,25,2,600,
CC(C)CNCc1ccc2c(c1)nc(NC(=O)c1ccc(-c3cn[nH]c3)s1)n2CC(C)(C)O,86,,,,360,
C[C@H](NCc1ccc2c(c1)[nH]/c(=N\C(=O)c1ccc(-c3cn[nH]c3)s1)n2CC(C)(C)O)C(C)(C)C,20,13,4,1,160,IC50 (Blood): 240 nM; Cmax [6]: 92 ng/mL; AUC(0-inf) [7]: 314 ng·h/mL; Activity (Mus musculus [8]): Dose-dependent effect; bioavailability [9]: 21%; half-life [10]: 2.5 h; concentration at 8 h [11]: 400 nM; clearance [12]: 53.1 mL/min/kg; concentration at 8 h [13]: 100 nM; concentration at 8 h [14]: 1300 nM; Vd [15]: 11.6 L/kg; Tmax [16]: 1.2 h; Activity (Mus musculus [17]): Dose-dependent effect; AUC(0-inf) [18]: 659 ng·h/mL
CC(C)(O)Cn1/c(=N/C(=O)c2ccc(-c3cn[nH]c3)s2)[nH]c2cc(CN3CCOCC3)ccc21,230,220,13,2,320,
